Results from article PMC6702328, “A VDAC1-Derived N-Terminal Peptide Inhibits Mutant SOD1-VDAC1 Interactions and Toxicity in the SOD1 Model of ALS” (Frontiers in Cellular Neuroscience, 2019).

Key:
[1] = tested on: NSC-34 cells transfected to express human mutant SOD1^G93A; assay: Rescue of mutant SOD1^G93A toxicity, cell viability (XTT / CellTiter 96 AQueous); assay type: cell-based, mouse; conditions: NSC-34 cells expressing SOD1^G93A, increasing peptide concentrations, 5 h, XTT assay; n = 3
Method: (§1) NSC-34 cells, a mouse motor neuron-like hybrid cell line, the A549 human lung adenocarcinoma and U-87MG human glioblastoma cell lines were incubated with the (1-26)N-Ter-Antp, D-(15-26)N-Ter-Antp, (1-20)N-Ter-Antp, (5-20)N-Ter-Antp, or (10-20)N-Ter-Antp peptides in the appropriate serum-free growth medium for 5 h at 37°C. Cells were harvested, and analyzed for cell death using propidium iodide (PI) staining and flow cytometry. For XTT, the CellTiter 96 AQueous one-solution cell proliferation assay was used to follow cell viability as described previously ([Leyton-Jaimes et al., 2016]).
(§2) NSC-34 (A), U-87MG (B), or A549 (C) cells were incubated with the indicated concentrations of (1-26)N-Ter-Antp (∙), D-(15-26) (19-26)N-Ter-Antp (▲), (1-20)N-Ter-Antp (∘), (5-20)N-Ter-Antp (□) or (10-20)N-Ter-Antp (◆) peptide for 5 h. Cell death was analyzed using PI staining and flow cytometry. […] Cell viability analysis was performed with the CellTiter 96 AQueous one-solution cell proliferation assay with ELISA at 490 nm. […] The significance of quantitative analysis of triplicates of different biological repeats (n = 3) was performed by Student’s t-test; ^∗∗P < 0.01. […] Twenty-four hours post-transfection, the cells were incubated for 5 h with (10-20)N-Ter-Antp peptide (20 μM) and then analyzed for apoptosis using acridine orange and ethidium bromide staining, as described previously ([McGahon et al., 1995]). Fluorescence microscopy images were analyzed and about 100 to 300 cells were counted for each treatment in representative microscopic fields. The significance of quantitative analysis of triplicates of different biological repeats (n = 3) was performed by one-way Anova; ^∗∗P < 0.01.
Cell viability was quantified using the XTT assay and apoptosis using acridine orange and ethidium bromide staining. […] Importantly, this effect was observed using the three non-cell death-inducing VDAC1-derived N-terminal peptides, i.e., the (1-20)-N-Ter-Antp, (5-20)-N-Ter-Antp and (10-20)-N-Ter-Antp peptides.

[2] = tested on: NSC-34 cells; assay: Cell death, PI staining and flow cytometry, NSC-34; assay type: cell-based, mouse; conditions: 5 h, serum-free medium, 37°C
Method: as §1, §2

[3] = tested on: A549 cells; assay: Cell death, PI staining and flow cytometry, A549; assay type: cell-based, human; conditions: 5 h, serum-free medium, 37°C
Method: as §1, §2

[4] = tested on: SOD1^G93A-expressing mESC-derived MNs; assay: Survival of mESC-derived motor neurons; assay type: cell-based, mouse
Method: (§3) This cell line carries green fluorescent protein (GFP) under the control of the promoter for the motor neuron (MN)-specific transcription factor HB9 (HB9:GFP cells) ([Di Giorgio et al., 2007]). We used the SOD1^G93A mESC line to derive GFP^+ MNs.
(§4) Motor neuron differentiation was induced as described previously with some modifications ([Wichterle et al., 2002]). Cells were cultured in ADFNB medium composed of advanced D-MEM/F12:Neurobasal (1:1), 0.1 mM 2-mercaptoethanol, and GlutaMAX supplement, B27 supplement, and N2 supplement all from Invitrogen, to form embryoid bodies (EBs), and supplemented with 0.1 μM of retinoic acid (RA, Sigma), as well as 0.5 μM of sonic hedgehog (Shh) agonist Ag1.3 (Curis) every second day.
For an in vitro differentiation assay, EBs were enzymatically dissociated after 7 days in culture with TrypLE Express (Gibco) and seeded on 0.01% poly-l-ornithine (Sigma) pre-coated coverslips followed by laminin (10 μg/ml, Sigma). Cells (5 × 10^4) were seeded on coverslip in 24-well plates with ADFNB cell medium supplemented with of Ciliary neurotrophic factor (10 ng/ml, CNTF) and Glial cell-derived neurotrophic factor (GDNF; Miltenyi Biotec). During plating, 1-20N-Ter-Antp VDAC1-peptide was added to the cultures. Half of the medium was replaced with fresh medium every second day and at the indicated time points. The cultures were fixed in 4% paraformaldehyde in PBS.
Stereological estimation of neurite lengths to evaluate neurite outgrowth in cultured cells was carried out as described previously ([Ronn et al., 2000]). The total neuritic length per cell was estimated by counting the number of GFP^+ soma and neurite intersections with test lines of an unbiased counting frame superimposed on images of cell cultures obtained using a 20× objective (NA 0.75) of a Nikon Eclipse E800 epifluorescence microscope equipped with a Nikon DXM1200F CCD camera. The absolute length, L, of neurites per cell was subsequently estimated from the number of neurite intersections, I, per cell by means of the equation L = (πd/2)I describing the relationship between the number of neurite intersections and the vertical distance, d, between the test lines used.
SOD1^G93A-expressing mESC-derived MNs were incubated with the indicated concentrations of (1-20)N-Ter-Antp peptide for 1–4 days following initiation of final differentiation. […] Scale bar, 100 μm. […] GFP fluorescence indicates the expression of the motor neuron-specific transcription factor HB9. Gross cellular morphology of surviving MNs remained unaffected by the (1-20)N-Ter-Antp peptide. Scale bar, 25 μm. (E) Quantification of MNs survival. For all assays, results are expressed as the mean ± SEM (n = 3). ^*P < 0.05.

[5] = tested on: U-87MG cells; assay: Cell death, PI staining and flow cytometry, U-87MG; assay type: cell-based, human; conditions: 5 h, serum-free medium, 37°C
Method: as §1, §2

[6] = tested on: SOD1^G93A-expressing mESC-derived MNs; assay: Neurite outgrowth of mESC-derived motor neurons; assay type: cell-based, mouse; conditions: 10 μM, first 24 h; mean ± SEM n = 3, P < 0.05
Method: as §3, §4
For an in vitro differentiation assay, EBs were enzymatically dissociated after 7 days in culture with TrypLE Express (Gibco) and seeded on 0.01% poly-l-ornithine (Sigma) pre-coated coverslips followed by laminin (10 μg/ml, Sigma). […]
SOD1^G93A-expressing mESC-derived MNs were incubated with the indicated concentrations of (1-20)N-Ter-Antp peptide for 1–4 days following initiation of final differentiation. […] GFP fluorescence indicates the expression of the motor neuron-specific transcription factor HB9. […] (E) Quantification of MNs survival. For all assays, results are expressed as the mean ± SEM (n = 3). ^*P < 0.05.

Substance: 1-MAVPPTYADLGKSARDVFTK-20-RQIKIWFQNRRMKWKK [(1-20)-N-Ter-Antp, like (1-26)-N-Ter-Antp but shortened by six amino acids at the C-terminus]
- Effect on SOD1^G93A toxicity (cell viability) [1]: reduced the toxic effect of SOD1^G93A in a concentration-dependent manner
- Cell death induction in NSC-34 cells [2]: could not induce cell death
- Cell death induction in A549 cells [3]: could not induce cell death
- improvement of survival of SOD1^G93A-expressing MNs (fold) ([4]; 10 μM, 96 h): twofold
- number of surviving MNs over the course of final differentiation ([4]; 10 μM, 96 h, n = 3, P < 0.05): significantly increased the number of surviving MNs
- number of MNs present in the culture ([4]; 5 and 10 μM, 24 h after initiation of differentiation, n = 3, P < 0.05): significantly increased the number of MNs present in the culture
- optimal peptide concentration for neurite outgrowth and survival ([4]; SOD1^G93A-expressing mESC-derived MNs): 10 µM
- Cell death induction in U-87MG cells [5]: could not induce cell death
- MN neurite outgrowth [6]: significantly increased MN neurite outgrowth
